In patent publication US20060258598A1, “Alpha-keto carbonyl calpain inhibitors” (priority 2003, published 2006):

Legend:
[1] = system: cellular calpains in C2C12 myoblasts; assay: Calpain inhibition assay in C2C12 myoblasts; format: cell-based; conditions: 2 h incubation, calcium ionophore Br-A-23187, read-out: Calp I IC50 Myoblast
Method in brief: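 Confluent C2C12 myoblasts in fusion medium (DMEM, 5% horse serum) exposed to compound for 2 h at 37 °C, then loaded with 400 μM Suc-Leu-Tyr-AMC for 20 min at room temperature in buffer with 4 mM CaCl2, HEPES pH 7.25. Calpains activated by Br-A-23187 ionophore (20 μM in added buffer); AMC fluorescence read each minute for 60 min at 37 °C to derive IC50.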

[2] = system: mdx mouse; assay: Longterm treatment of mdx mice (model for Duchenne Muscular Dystrophy); format: in vivo; conditions: 10 mg/kg/day i.p., 4 weeks, vs vehicle mdx mice
Description: The mdx mouse is a well established animal model for Duchenne Muscular Dystrophy (Bulfield G., Siller W. G., Wight P. A., Moore K. J., X chromosome-linked muscular dystrophy (mdx) in the mouse, Proc. Natl. Acad. Sci. USA., 1984, 81(4), 1189-1192). Selected compounds were tested in longterm treatments of mdx mice, according to the procedures described below.
Mouse strains: C57BL/10scsn and C57BL/10scsn mdx mouse strains were purchased at The Jackson Laboratory (ME, USA) and bred inhouse. Mouse males were sacrificed at the age of 3 or 7 weeks by CO2 asphyxiation.
Treatment: Compounds were dissolved in 50% PEG, 50% saline solution and applied by i.p. injection.
Histology: Tibialis anterior (TA) and diaphragm (Dia) muscles were collected and mounted on cork supports using gum tragacanth (Sigma-Aldrich, Germany). The samples were snap-frozen in melting isopentane and stored at −80° C. 12 μm thick cryosections of the mid-belly region of muscles were prepared. For staining, sections were air dried and fixed with 4% PFA in PBS for 5 minutes, washed 3 times with PBS and incubated over night at 4° C. in PBS containing 2 μg/ml Alexa Fluor™ 488 conjugated wheat-germ agglutinin (WGA-Alexa, Molecular Probes, Eugen, Oreg., USA) to stain membrane-bound and extracellular epitopes and 1 μg/ml 4′,6-diamidino-2-phenylindole (DAPI; Molecular Probes) to stain nuclei.
Image acquisition and analysis: Fluorescence microscopy images of both labels were acquired using a digital camera (ColorView II, Soft Imaging System, Munster, Germany) coupled to a fluorescence microscope (Vanox S, Olympus, Tokyo, Japan). Combination of these two stainings to a composite image, assembling of several images to a complete image of the entire muscle cross-section and further semi-automated analysis was performed using the image analysis program AnalySIS (Soft Imaging System). Image analysis of 1200-2900 muscle fibers in each section was performed in three steps: 1) determination of the muscle fiber boundaries, 2) determination of the muscle fiber size, and 3) determination of the percentage of muscle fibers containing centralized nuclei. Six different geometrical parameters were tested for the determination of the muscle fiber size: (a) the “minimal feret” (the minimum distance of parallel tangents at opposing borders of the muscle fiber), (b) the “area”, (c) the “minimal inner diameter” (the minimum diameter through the center of the muscle fiber), (d) the “minimal diameter” (the minimum diameter of a muscle fiber for angles in the range 0° through 179° with step width 1°, (e) the “minimal outer diameter” (the minimum diameter through the muscle fiber from outer border to outer border), and (f) the “perimeter”. The variance coefficient of the muscle fiber size is defined as follows: variance coefficient=(standard deviation of the muscle fiber size/mean of the muscle fiber size of the section)*1000. For statistical analysis of different variance coefficient values Mann-Whitney U test was used.
Selected Examples of the present invention were active in the mdx mouse model at 10 mg/kg/day, using 3 week old mice and a treatment period of 4 weeks (N=5−10).

CCNC(=O)C(=O)[C@H](Cc1ccc(Br)cc1)NC(=O)[C@H](CC(C)C)NC(=O)CCCCC1CCSS1 (some centres unmarked) [Example 64]
IC50 [1]: 500 nM | decrease in the variance coefficient of the muscle fiber size ([2]; Dia (diaphragm)): 29% | reduction of percentage of centralized nuclei ([2]; Dia (diaphragm)): 61% | decrease in the variance coefficient of the muscle fiber size ([2]; TA (tibialis anterior)): 43% | reduction of percentage of centralized nuclei ([2]; TA (tibialis anterior)): 28%
